The values that follow come from patent publication US20250101038A1, “COMPOUNDS” (priority 2021, published 2025).

One assay concerns the target T1, 5-HT2C receptor (Homo sapiens, UniProt P28335).
T1 construct: host or cells: HEK293
T1 sequence (P28335 33-458): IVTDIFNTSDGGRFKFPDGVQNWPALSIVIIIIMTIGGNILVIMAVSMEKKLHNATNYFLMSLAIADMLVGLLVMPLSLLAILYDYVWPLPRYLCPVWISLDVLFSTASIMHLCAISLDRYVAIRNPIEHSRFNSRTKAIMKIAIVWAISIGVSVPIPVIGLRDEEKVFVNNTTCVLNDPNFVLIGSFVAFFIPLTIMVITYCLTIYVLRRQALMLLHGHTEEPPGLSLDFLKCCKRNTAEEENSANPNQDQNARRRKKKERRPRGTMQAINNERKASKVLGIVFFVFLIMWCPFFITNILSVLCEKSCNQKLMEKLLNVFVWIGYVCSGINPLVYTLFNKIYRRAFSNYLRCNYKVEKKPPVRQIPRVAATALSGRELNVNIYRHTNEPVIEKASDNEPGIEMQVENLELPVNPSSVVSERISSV
The assay can be described thus: cell-based.

A further assay deals with T2, 5-HT2B receptor (Homo sapiens, UniProt P41595).
T2 construct: host or cells: CHO-K1
T2 sequence (P41595 whole entry): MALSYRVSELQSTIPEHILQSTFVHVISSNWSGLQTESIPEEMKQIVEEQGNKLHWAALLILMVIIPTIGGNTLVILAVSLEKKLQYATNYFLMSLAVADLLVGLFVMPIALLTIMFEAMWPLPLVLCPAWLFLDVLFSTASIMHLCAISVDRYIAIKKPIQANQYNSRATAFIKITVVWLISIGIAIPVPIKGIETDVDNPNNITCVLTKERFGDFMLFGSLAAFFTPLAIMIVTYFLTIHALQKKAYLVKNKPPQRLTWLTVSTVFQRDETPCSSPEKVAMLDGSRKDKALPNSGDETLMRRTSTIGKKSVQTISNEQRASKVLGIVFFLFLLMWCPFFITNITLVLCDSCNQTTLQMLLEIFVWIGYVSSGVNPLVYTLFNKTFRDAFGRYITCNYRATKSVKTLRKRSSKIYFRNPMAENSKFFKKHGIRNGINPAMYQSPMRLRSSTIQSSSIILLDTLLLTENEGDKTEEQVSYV
The experiment in a line: cell-based.

For another assay, the target named is T3, 5-HT2A receptor (Homo sapiens, UniProt P28223).
T3 construct: host or cells: HEK293
T3 sequence (P28223 whole entry): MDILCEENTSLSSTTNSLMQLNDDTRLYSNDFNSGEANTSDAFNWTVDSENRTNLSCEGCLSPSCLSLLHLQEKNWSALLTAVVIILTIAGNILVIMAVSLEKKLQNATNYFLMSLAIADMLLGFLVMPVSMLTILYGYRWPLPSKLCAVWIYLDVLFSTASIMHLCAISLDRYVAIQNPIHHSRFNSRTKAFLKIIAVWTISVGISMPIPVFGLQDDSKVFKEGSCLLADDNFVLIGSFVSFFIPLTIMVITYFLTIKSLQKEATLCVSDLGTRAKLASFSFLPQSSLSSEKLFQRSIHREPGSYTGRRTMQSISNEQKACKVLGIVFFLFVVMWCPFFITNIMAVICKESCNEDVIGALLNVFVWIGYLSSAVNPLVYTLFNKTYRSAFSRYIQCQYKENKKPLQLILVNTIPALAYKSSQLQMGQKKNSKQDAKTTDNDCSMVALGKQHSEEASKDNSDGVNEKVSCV
The experiment in a line: FLIPR Ca2+ flux functional assay, 5-HT2A. In kind it is cell-based.

Setting [1] is: agonist activity, Ca2+ flux, HEK293 cells.
Setting [2] is: agonist activity, Ca2+ flux, HEK293 cells, read-out: 5-HT2C EC50.
The mark [3] stands for this setting: agonist activity, Ca2+ flux, CHO-K1 cells.
[4] abbreviates: agonist activity, Ca2+ flux, CHO-K1 cells, read-out: 5-HT2B EC50.
[5] abbreviates: agonist activity, Ca2+ flux, HEK293 cells, read-out: 5-HT2A EC50.

Molecules are shown by their SMILES. Read-outs that look alike come from different tables or passages of the source.

`CCN(CC)CCc1c[nH]c2cc(F)cc(OC)c12` [Example P-98, N,N-diethyl-2-(6-fluoro-4-methoxy-1H-indol-3-yl)ethan-1-amine]: the figures for the Emax at 5-HT2C receptor (setting [1]), at 5-HT2B receptor (setting [3]) and at 5-HT2A receptor (setting [1]) were 71.8%, 63.6% and 64.3%, respectively. Moreover, the figures for the concentration giving a half-maximal response (EC50) on 5-HT2C receptor (setting [2]), on 5-HT2B receptor (setting [4]) and at 5-HT2A receptor (setting [5]) were 311 nM, 5430 nM and 16 nM, respectively.
Turning to `CCN(CCc1c[nH]c2cc(F)cc(OC)c12)C(C)C` [Example P-99, N-ethyl-N-(2-(6-fluoro-4-methoxy-1H-indol-3-yl)ethyl)propan-2-amine], the maximum response (Emax) was determined as 79.3% at 5-HT2C receptor (setting [1]), 116% on 5-HT2B receptor (setting [3]) and 81.4% at 5-HT2A receptor (setting [1]). Further, the concentration for a half-maximal effect (EC50) at 5-HT2C receptor (setting [2]) amounted to 755 nM; on 5-HT2B receptor (setting [4]), 913 nM; on 5-HT2A receptor (setting [5]) it was 30.7 nM.
For `COc1cc(F)cc2[nH]cc(CCN(C(C)C)C(C)C)c12` [Example P-100, N-(2-(6-fluoro-4-methoxy-1H-indol-3-yl)ethyl)-N-isopropylpropan-2-amine], the figures for the Emax on 5-HT2C receptor (setting [1]), at 5-HT2B receptor (setting [3]) and at 5-HT2A receptor (setting [1]) were 76.9%, 128% and 91.3%, respectively. The EC50 at 5-HT2C receptor (setting [2]) was determined as 864 nM; at 5-HT2B receptor (setting [4]), 436 nM; on 5-HT2A receptor (setting [5]), 51.4 nM.
In the case of `COc1ccc(F)c2[nH]cc(CCN(C)C)c12` [Example P-101, 2-(7-fluoro-4-methoxy-1H-indol-3-yl)-N,N-dimethylethan-1-amine], the Emax at 5-HT2C receptor (setting [1]) turned out to be 53.1%; on 5-HT2B receptor (setting [3]), 4.06%; on 5-HT2A receptor (setting [1]), 71.6%. Moreover, the concentration giving a half-maximal response (EC50) at 5-HT2C receptor (setting [2]) was 8.28 nM; at 5-HT2B receptor (setting [4]), above 10000 nM; on 5-HT2A receptor (setting [5]) it was 3.84 nM.
For the compound `CCN(C)CCc1c[nH]c2c(F)ccc(OC)c12` [Example P-102, N-ethyl-2-(7-fluoro-4-methoxy-1H-indol-3-yl)-N-methylethan-1-amine], the Emax on 5-HT2C receptor (setting [1]) worked out at 47.5%; at 5-HT2B receptor (setting [3]) it was 3.44%; at 5-HT2A receptor (setting [1]), 60.8%. In addition, the EC50 on 5-HT2C receptor (setting [2]) is 155 nM; on 5-HT2B receptor (setting [4]), above 10000 nM; at 5-HT2A receptor (setting [5]), 15 nM.
On to `COc1ccc(F)c2[nH]cc(CCN(C)C(C)C)c12` [Example P-103, N-(2-(7-fluoro-4-methoxy-1H-indol-3-yl)ethyl)-N-methylpropan-2-amine], for which the results for the Emax on 5-HT2C receptor (setting [1]), at 5-HT2B receptor (setting [3]) and on 5-HT2A receptor (setting [1]) were 7.02%, 3.67% and 61.8%, respectively. Also, the results for the concentration giving a half-maximal response (EC50) at 5-HT2C receptor (setting [2]), on 5-HT2B receptor (setting [4]) and at 5-HT2A receptor (setting [5]) were above 10000 nM, above 10000 nM and 34.6 nM, respectively.
`CCN(CC)CCc1c[nH]c2c(F)ccc(OC)c12` [Example P-104, N,N-diethyl-2-(7-fluoro-4-methoxy-1H-indol-3-yl)ethan-1-amine]: the Emax on 5-HT2C receptor (setting [1]) worked out at 52.5%; on 5-HT2B receptor (setting [3]), 13.1%; at 5-HT2A receptor (setting [1]) it was 77.5%. Besides, the figures for the EC50 on 5-HT2C receptor (setting [2]), at 5-HT2B receptor (setting [4]) and at 5-HT2A receptor (setting [5]) were 8180 nM, above 10000 nM and 28.3 nM, respectively.
As for `COc1ccc(F)c2[nH]cc(CCN(C(C)C)C(C)C)c12` [Example P-105, N-(2-(7-fluoro-4-methoxy-1H-indol-3-yl)ethyl)-N-isopropylpropan-2-amine], the Emax on 5-HT2C receptor (setting [1]) turned out to be 92.6%; on 5-HT2B receptor (setting [3]), 127%; at 5-HT2A receptor (setting [1]) it was 91.2%. The EC50 was found to be 1200 nM at 5-HT2C receptor (setting [2]), 134 nM on 5-HT2B receptor (setting [4]) and 147 nM on 5-HT2A receptor (setting [5]).
`CCN(C)CCc1c[nH]c2c(F)cc(OC)cc12` [Example P-115, N-ethyl-2-(7-fluoro-5-methoxy-1H-indol-3-yl)-N-methylethan-1-amine]: the Emax at 5-HT2C receptor (setting [1]) turned out to be 81.7%; at 5-HT2B receptor (setting [3]) it was 16.4%; at 5-HT2A receptor (setting [1]) it was 85.6%.
On to `COc1cc(F)c2[nH]cc(CCN(C)C(C)C)c2c1` [Example P-116, N-(2-(7-fluoro-5-methoxy-1H-indol-3-yl)ethyl)-N-methylpropan-2-amine], for which the maximal effect (Emax) on 5-HT2C receptor (setting [1]) amounted to 60.5%; at 5-HT2B receptor (setting [3]), 23.1%; on 5-HT2A receptor (setting [1]), 60.2%. Moreover, the EC50 amounted to 720 nM on 5-HT2C receptor (setting [2]), 136 nM at 5-HT2B receptor (setting [4]) and 15.7 nM at 5-HT2A receptor (setting [5]).
For the compound `CCN(CC)CCc1c[nH]c2c(F)cc(OC)cc12` [Example P-117, N,N-diethyl-2-(7-fluoro-5-methoxy-1H-indol-3-yl)ethan-1-amine], the figures for the maximum response (Emax) on 5-HT2C receptor (setting [1]), at 5-HT2B receptor (setting [3]) and at 5-HT2A receptor (setting [1]) were 81.5%, 41.2% and 95.8%, respectively.
As to `COc1cc(F)c2[nH]cc(CCN(C(C)C)C(C)C)c2c1` [Example P-118, N-(2-(7-fluoro-5-methoxy-1H-indol-3-yl)ethyl)-N-isopropylpropan-2-amine], the Emax turned out to be 97.1% on 5-HT2C receptor (setting [1]), 95.2% at 5-HT2B receptor (setting [3]) and 82.2% on 5-HT2A receptor (setting [1]). Further, the EC50 on 5-HT2C receptor (setting [2]) was found to be 695 nM; on 5-HT2B receptor (setting [4]), 66.3 nM; on 5-HT2A receptor (setting [5]) it was 17.4 nM.
Regarding `CN(C)CCc1c[nH]c2ccc3oc(=O)[nH]c3c12` [Example P-125, 8-(2-(dimethylamino)ethyl)-1,6-dihydro-2H-oxazolo[4,5-e]indol-2-one], the results for the EC50 at 5-HT2C receptor, on 5-HT2B receptor and at 5-HT2A receptor were 538 nM, 14.3 nM and 48.5 nM, respectively. Further, the Emax on 5-HT2C receptor (setting [1]) came out at 56.7%; at 5-HT2B receptor (setting [3]), 42.5%; on 5-HT2A receptor (setting [1]) it was 75.5%.
In the case of `CCN(C)CCc1c[nH]c2ccc3ocnc3c12` [Example P-127, N-ethyl-N-methyl-2-(6H-oxazolo[4,5-e]indol-8-yl)ethan-1-amine], the EC50 is 30.7 nM on 5-HT2C receptor, above 10000 nM on 5-HT2B receptor and 12 nM on 5-HT2A receptor. Further, the Emax at 5-HT2C receptor (setting [1]) is 70.5%; at 5-HT2B receptor (setting [3]), 10.5%; at 5-HT2A receptor (setting [1]) it was 54%.
For the compound `CC(C)N(C)CCc1c[nH]c2ccc3ocnc3c12` [Example P-128, N-(2-(6H-oxazolo[4,5-e]indol-8-yl)ethyl)-N-methylpropan-2-amine], the maximal effect (Emax) on 5-HT2C receptor (setting [1]) worked out at 58%; at 5-HT2B receptor (setting [3]), 16.8%; at 5-HT2A receptor (setting [1]), 83.8%. The EC50 was 67.8 nM on 5-HT2C receptor (setting [2]), above 10000 nM on 5-HT2B receptor (setting [4]) and 14.3 nM at 5-HT2A receptor (setting [5]).
For `CCN(CC)CCc1c[nH]c2ccc3ocnc3c12` [Example P-129, N,N-diethyl-2-(6H-oxazolo[4,5-e]indol-8-yl)ethan-1-amine], the EC50 at 5-HT2C receptor was determined as 72.7 nM; on 5-HT2B receptor, 14.9 nM; at 5-HT2A receptor, 14.4 nM. Further, the Emax at 5-HT2C receptor (setting [1]) was found to be 93.1%; on 5-HT2B receptor (setting [3]), 41.1%; on 5-HT2A receptor (setting [1]), 64%.
With `CC(C)N(CCc1c[nH]c2ccc3ocnc3c12)C(C)C` [Example P-130, N-(2-(6H-oxazolo[4,5-e]indol-8-yl)ethyl)-N-isopropylpropan-2-amine], the Emax at 5-HT2C receptor (setting [1]) turned out to be 104%; on 5-HT2B receptor (setting [3]) it was 114%; on 5-HT2A receptor (setting [1]), 87.5%. Further, the EC50 on 5-HT2C receptor (setting [2]) amounted to 203 nM; at 5-HT2B receptor (setting [4]), 7.54 nM; at 5-HT2A receptor (setting [5]), 18.1 nM.
For `Cc1nc2c(ccc3[nH]cc(CCN(C)C)c32)o1` [Example P-131, N,N-dimethyl-2-(2-methyl-6H-oxazolo[4,5-e]indol-8-yl)ethan-1-amine], the results for the EC50 on 5-HT2C receptor, at 5-HT2B receptor and on 5-HT2A receptor were 15.8 nM, above 10000 nM and 10.6 nM, respectively. For the same compound, the Emax at 5-HT2C receptor (setting [1]) was 90.1%; at 5-HT2B receptor (setting [3]), 3.93%; on 5-HT2A receptor (setting [1]), 97.2%.
Turning to `CCN(C)CCc1c[nH]c2ccc3oc(C)nc3c12` [Example P-132, N-ethyl-N-methyl-2-(2-methyl-6H-oxazolo[4,5-e]indol-8-yl)ethan-1-amine], the EC50 is 177 nM on 5-HT2C receptor, above 10000 nM at 5-HT2B receptor and 20.6 nM on 5-HT2A receptor. The Emax is 85.7% on 5-HT2C receptor (setting [1]), 11.4% at 5-HT2B receptor (setting [3]) and 69.1% at 5-HT2A receptor (setting [1]).
As for `Cc1nc2c(ccc3[nH]cc(CCN(C)C(C)C)c32)o1` [Example P-133, N-methyl-N-(2-(2-methyl-6H-oxazolo[4,5-e]indol-8-yl)ethyl)propan-2-amine], the Emax at 5-HT2C receptor (setting [1]) worked out at 72.6%; at 5-HT2B receptor (setting [3]), 22.4%; at 5-HT2A receptor (setting [1]), 78.4%. Also, the half-maximal effective concentration (EC50) on 5-HT2C receptor (setting [2]) amounted to 894 nM; on 5-HT2B receptor (setting [4]) it was 68.6 nM; on 5-HT2A receptor (setting [5]), 27.9 nM.
For `CCN(CC)CCc1c[nH]c2ccc3oc(C)nc3c12` [Example P-134, N,N-diethyl-2-(2-methyl-6H-oxazolo[4,5-e]indol-8-yl)ethan-1-amine], the EC50 on 5-HT2C receptor was found to be 429 nM; on 5-HT2B receptor it was 59.9 nM; on 5-HT2A receptor it was 20.3 nM. Further, the maximal response (Emax) at 5-HT2C receptor (setting [1]) amounted to 91.3%; at 5-HT2B receptor (setting [3]), 56.4%; at 5-HT2A receptor (setting [1]), 77.5%.
On to `Cc1nc2c(ccc3[nH]cc(CCN(C(C)C)C(C)C)c32)o1` [Example P-135, N-isopropyl-N-(2-(2-methyl-6H-oxazolo[4,5-e]indol-8-yl)ethyl)propan-2-amine], for which the Emax on 5-HT2C receptor (setting [1]) was 99.2%; on 5-HT2B receptor (setting [3]), 91.3%; on 5-HT2A receptor (setting [1]) it was 78.3%. Moreover, the EC50 worked out at 2070 nM at 5-HT2C receptor (setting [2]), 31.4 nM on 5-HT2B receptor (setting [4]) and 25.1 nM at 5-HT2A receptor (setting [5]).
For `CN(C)CCc1c[nH]c2ccc(F)c(F)c12` [Example P-142, 2-(4,5-difluoro-1H-indol-3-yl)-N,N-dimethylethan-1-amine], the maximum response (Emax) on 5-HT2C receptor (setting [1]) came out at 118%; at 5-HT2B receptor (setting [3]) it was 2.92%; at 5-HT2A receptor (setting [1]), 70%.
